Key:
[1] = test system: RVH-421 (Melanoma); assay: Bliss excess, mean over the matrix (fraction); higher = more synergy
In short: (§1)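 Cell lines grown in DMEM/F12 or RPMI with 10% FBS were plated in 1536-well plates and held 24 hours at 37°C, 5% CO2 before 72 hours of exposure to two-drug dose matrices, with DMSO typically at 0.2%. CellTiter-Glo 2.0 luminescence gave viability, which was converted to inhibition. Vehicle wells were set to 0 and blank wells to 1. Combination Emax is the second-highest inhibition in the matrix, and Bliss excess is the observed combination effect minus the expected EA + EB − EA·EB, where EA and EB are the single-agent effects.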

[2] = test system: OCI-M1 (Acute Myeloid Leukemia); assay: combination Emax (second highest fraction inhibited in the dose matrix, 72 h); higher = more inhibition; extreme values may be limits of the assay
In short: as §1

[3] = test system: A375 (Melanoma); assay: as above
In short: as §1

[4] = test system: TK (B-Cell Non-Hodgkin's Lymphoma); assay: as above
In short: as §1

[5] = test system: C32 (Melanoma); assay: as above
In short: as §1

[6] = test system: KNS-62 (Squamous Cell Lung Carcinoma); assay: as above
In short: as §1

[7] = test system: NCI-H2009 (Lung Adenocarcinoma); assay: as above
In short: as §1

[8] = test system: JJN-3 (Plasma Cell Myeloma); assay: as above
In short: as §1

[9] = test system: NCI-H1975 (Lung Adenocarcinoma); assay: as above
In short: as §1

[10] = test system: HT-1197 (Bladder Carcinoma); assay: as above
In short: as §1

[11] = test system: DK-MG (Glioblastoma); assay: as above
In short: as §1

[12] = test system: GRANTA-519 (B-Cell Non-Hodgkin's Lymphoma); assay: as above
In short: as §1

[13] = test system: ATN-1 (T-Lymphoblastic Leukemia); assay: as above
In short: as §1

[14] = test system: NCI-H1944 (Lung Adenocarcinoma); assay: as above
In short: as §1

[15] = test system: RVH-421 (Melanoma); assay: as above
In short: as §1

[16] = test system: Daudi (Burkitt's Lymphoma); assay: as above
In short: as §1

[17] = test system: SNU-1 (Gastric Carcinoma); assay: as above
In short: as §1

[18] = test system: RPMI-8402 (T-Lymphoblastic Leukemia); assay: as above
In short: as §1

[19] = test system: M14 (Melanoma); assay: Bliss excess, mean over the matrix (fraction); higher = more synergy
In short: as §1

[20] = test system: M14 (Melanoma); assay: combination Emax (second highest fraction inhibited in the dose matrix, 72 h); higher = more inhibition; extreme values may be limits of the assay
In short: as §1
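Wherever Bliss excess, mean over the matrix is given: after 72 h of two-drug dosing.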

| SMILES | Bliss excess [1] | combination Emax [2] | combination Emax [3] | combination Emax [4] | combination Emax [5] | combination Emax [6] | combination Emax [7] | combination Emax [8] | combination Emax [9] | combination Emax [10] | combination Emax [11] | combination Emax [12] | combination Emax [13] | combination Emax [14] | combination Emax [15] | combination Emax [16] | combination Emax [17] | combination Emax [18] | Bliss excess [19] | combination Emax [20] |
| --- | --- | --- | --- | --- | --- | --- | --- | --- | --- | --- | --- | --- | --- | --- | --- | --- | --- | --- | --- | --- |
| COc1cccc(OCCCN)c1-c1cc(Nc2cnc(C#N)cn2)n[nH]1 [Prexasertib] + O=C(c1cc(Cc2n[nH]c(=O)c3ccccc23)ccc1F)N1CCN(C(=O)C2CC2)CC1 [Olaparib] (first compound max 1 µM, 7x7, partner max 10 µM) | -0.0491 | 0.981 | 0.815 | 0.891 | 0.769 | 0.576 | 0.574 | 0.978 | 0.299 | 0.478 | 0.224 | 0.865 | 1 | 0.613 | 0.3 | 0.945 | 0.777 | 1 |  |  |
| COc1cccc(OCCCN)c1-c1cc(Nc2cnc(C#N)cn2)n[nH]1 [Prexasertib] + Cc1cc2ncnn2cc1Nc1ncc2c(n1)n(C1CCOCC1)c(=O)n2C [AZD7648] (first compound max 1 µM, 7x7, partner max 10 µM) | -0.0417 | 0.948 | 0.877 | 0.872 | 0.753 | 0.601 | 0.45 | 0.966 | 0.409 | 0.517 | 0.312 | 0.852 | 1 | 0.806 | 0.344 | 0.947 | 0.84 | 1 |  |  |
| CN(CCO)CC[C@H](CSc1ccccc1)Nc1ccc(S(=O)(=O)NC(=O)c2ccc(N3CCC([C@@H](O)c4ccccc4-c4ccc(Cl)cc4)CC3)cc2)cc1S(=O)(=O)C(F)(F)F [AZD4320] + C=CCn1c(=O)c2cnc(Nc3ccc(N4CCN(C)CC4)cc3)nc2n1-c1cccc(C(C)(C)O)n1 [AZD1775] (first compound max 1 µM, partner max 1 µM) | 0.0274 | 1 | 0.749 | 1 | 0.639 | 0.363 | 0.764 | 0.662 | 0.562 | 0.622 | 0.283 | 1 | 0.982 | 0.813 | 0.442 | 0.336 | 0.929 | 1 |  |  |
| Cc1c2c(nn1C)CSCc1cc(n(C)n1)CSc1cc(c3ccccc3c1)OCCCc1c(C(=O)O)n(C)c3c-2c(Cl)ccc13 [AZD5991] + C[C@@H](Nc1cc(F)cc(F)c1)c1cc(C(=O)N(C)C)cc2c(=O)cc(N3CCOCC3)oc12 [AZD8186] (first compound max 1 µM, 7x7, partner max 3 µM) | -0.0204 | 0.0662 | 0.289 | 0.112 | 0.251 | 0.17 | 0.165 | 1 | 0.431 | 0.252 | 0.849 | 0.0698 | 0.945 | 0.282 | 0.517 | 0.427 | 0.652 | 0.888 |  |  |
| CCN(CCO)CCCOc1ccc2c(Nc3cc(CC(=O)Nc4cccc(F)c4)[nH]n3)ncnc2c1 [AZD2811] + O=C(c1cc(Cc2n[nH]c(=O)c3ccccc23)ccc1F)N1CCN(C(=O)C2CC2)CC1 [Olaparib] (first compound max 1 µM, 7x7, partner max 10 µM) | -0.0685 | 0.268 | 0.408 | 0.206 | 0.232 | 0.145 | 0.343 | 0.336 | 0.191 | 0.203 | 0.258 | 0.452 | 0.835 | 0.243 | 0.176 | 0.48 | 0.381 | 0.85 |  |  |
| CC1(C)CCC(CN2CCN(c3ccc(C(=O)NS(=O)(=O)c4ccc(NCC5CCOCC5)c([N+](=O)[O-])c4)c(Oc4cnc5[nH]ccc5c4)c3)CC2)=C(c2ccc(Cl)cc2)C1 [Venetoclax] + CN(C)CCCOc1ccc(-c2ccc3ncc4c(c3c2)n(C2CCOCC2)c(=O)n4C)cn1 [AZD0156] (first compound max 1 µM, 7x7, partner max 1 µM) | -0.0658 | 0.19 | 0.216 | 0.969 | 0.413 | 0.262 | 0.273 | 0.235 | 0.216 | 0.198 | 0.292 | 0.388 | 0.402 | 0.228 | 0.16 | 0.054 | 0.225 | 0.188 |  |  |
| Cc1c2c(nn1C)CSCc1cc(n(C)n1)CSc1cc(c3ccccc3c1)OCCCc1c(C(=O)O)n(C)c3c-2c(Cl)ccc13 [AZD5991] + CCN(CCO)CCCOc1ccc2c(Nc3cc(CC(=O)Nc4cccc(F)c4)[nH]n3)ncnc2c1 [AZD2811] (first compound max 1 µM, 7x7, partner max 1 µM) | -0.0055 | 0.285 | 0.746 | 0.289 | 0.445 | 0.244 | 0.754 | 1 | 0.485 | 0.2 | 0.839 | 0.464 | 0.976 | 0.35 | 0.214 | 0.806 | 0.551 | 1 |  |  |
| CN(C)CCCOc1ccc(-c2ccc3ncc4c(c3c2)n(C2CCOCC2)c(=O)n4C)cn1 [AZD0156] + O=C(c1cc(Cc2n[nH]c(=O)c3ccccc23)ccc1F)N1CCN(C(=O)C2CC2)CC1 [Olaparib] (first compound max 3 µM, partner max 3 µM) |  | 0.534 | 0.29 | 0.18 | 0.164 | 0.367 | 0.436 | 0.213 | 0.39 | 0.121 | 0.41 | 0.151 | 0.393 | 0.49 |  | 0.48 | 0.182 | 0.666 | 0.0435 | 0.365 |
| CN(C)CCCOc1ccc(-c2ccc3ncc4c(c3c2)n(C2CCOCC2)c(=O)n4C)cn1 [AZD0156] + CCN(CCO)CCCOc1ccc2c(Nc3cc(CC(=O)Nc4cccc(F)c4)[nH]n3)ncnc2c1 [AZD2811] (first compound max 1 µM, 7x7, partner max 1 µM) | -0.0626 | 0.222 | 0.33 | 0.273 | 0.14 | 0.141 | 0.189 | 0.404 | 0.3 | 0.203 | 0.204 | 0.364 | 0.835 | 0.205 | 0.0787 | 0.497 | 0.434 | 0.889 |  |  |
| CN(CCO)CC[C@H](CSc1ccccc1)Nc1ccc(S(=O)(=O)NC(=O)c2ccc(N3CCC([C@@H](O)c4ccccc4-c4ccc(Cl)cc4)CC3)cc2)cc1S(=O)(=O)C(F)(F)F [AZD4320] + CN(C)CCCOc1ccc(-c2ccc3ncc4c(c3c2)n(C2CCOCC2)c(=O)n4C)cn1 [AZD0156] (first compound max 1 µM, 7x7, partner max 1 µM) | -0.0254 | 0.988 | 0.129 | 0.998 | 0.284 | 0.125 | 0.0839 | 0.445 | 0.256 | 0.142 | 0.192 | 0.934 | 0.656 | 0.322 | 0.164 | 0.119 | 0.397 | 0.903 |  |  |
| CC1(C)CCC(CN2CCN(c3ccc(C(=O)NS(=O)(=O)c4ccc(NCC5CCOCC5)c([N+](=O)[O-])c4)c(Oc4cnc5[nH]ccc5c4)c3)CC2)=C(c2ccc(Cl)cc2)C1 [Venetoclax] + C1CN(CCC1(C(=O)N[C@@H](CCO)C2=CC=C(C=C2)Cl)N)C3=NC=NC4=C3C=CN4 [Capivasertib] (first compound max 1 µM, 7x7, partner max 3 µM) | -0.0471 | 0.157 | 0.175 | 0.996 | 0.356 | 0.364 | 0.128 | 0.305 | 0.562 | 0.326 | 0.301 | 0.411 | 0.646 | 0.249 | 0.351 | 0.205 | 0.256 | 0.498 |  |  |
| CC1(C)CCC(CN2CCN(c3ccc(C(=O)NS(=O)(=O)c4ccc(NCC5CCOCC5)c([N+](=O)[O-])c4)c(Oc4cnc5[nH]ccc5c4)c3)CC2)=C(c2ccc(Cl)cc2)C1 [Venetoclax] + C[C@@H](Nc1cc(F)cc(F)c1)c1cc(C(=O)N(C)C)cc2c(=O)cc(N3CCOCC3)oc12 [AZD8186] (first compound max 1 µM, 7x7, partner max 3 µM) | -0.0084 | 0.0849 | 0.109 | 1 | 0.26 | 0.133 | 0.445 | 0.232 | 0.22 | 0.126 | 0.372 | 0.437 | 0.616 | 0.184 | 0.326 | 0.271 | 0.154 | 0.431 |  |  |
| CC(=O)Nc1cccc(-n2c(=O)n(C3CC3)c(=O)c3c(Nc4ccc(I)cc4F)n(C)c(=O)c(C)c32)c1 [Trametinib] + Cc1nc(-c2cn3c(n2)-c2ccc(-c4cnn(C(C)(C)C(N)=O)c4)cc2OCC3)n(C(C)C)n1 [Taselisib] (first compound max 1 µM, 7x7, partner max 10 µM) | 0.0732 | 1 | 0.935 | 0.169 | 1 | 0.827 | 0.955 | 0.532 | 0.96 | 0.76 | 0.969 | 0.189 | 0.74 | 0.985 | 0.638 | 0.523 | 0.769 | 0.777 |  |  |
